Results reported in US6525001B1, “Substituted pyrimidine and pyridine herbicides” (Mid-American Commercialization Corporation, priority 1997, dated 2003).

Assays:
Type in all cases: in vivo
[1] = tested on: blackgrass (Alopecurus myosuroides); test: Test B pre-/postemergence; parameters: key: 0 is no effect; 10 is complete control; conditions: for Blackgrass plant response rating: Preemergence
From the text: (§1) Seeds of bedstraw (Galium aparine), blackgrass (Alopecurus myosuroides), broadleaf signalgrass (Brachiaria decumbens), cocklebur (Xanthium strumarium), corn (Zea mays), crabgrass (Digitaria sanguinalis), giant foxtail (Setaria faberii), lambsquarters (Chenopodium album), momingglory (Ipomoea hederacea), pigweed (Amaranthus retroflexus), rape (Brassica napus), soybean (Glycine max), sugar beet (Beta vulgaris), velvetleaf (Abutilon theophrasti), wheat (Triticum aestivum), wild oat (Avena fatua) and purple nutsedge (Cyperus rotundus) tubers were planted and treated preemergence with test chemicals formulated in a non-phytotoxic solvent mixture which included a surfactant.
(§2) At the same time, these crop and weed species were also treated with postemergence applications of test chemicals formulated in the same manner. Plants ranged in height from 2 to 18 cm (1- to 4-leaf stage) for postemergence treatments. Plant species in the flood test consisted of rice (Oryza sativa), smallflower flatsedge (Cyperus difformis), duck salad (Heteranthera limosa) and bamyardgrass (Echinochloa crus-galli) grown to the 2-leaf stage for testing. Treated plants and controls were maintained in a greenhouse for twelve to sixteen days, after which all species were compared to controls and visually evaluated. Plant response ratings, summarized in Table B, are based on a scale of 0 to 10 where 0 is no effect and 10 is complete control. A dash (−) response means no test result.

[2] = tested on: soybean (Glycine max); test: Test B pre-/postemergence; parameters: key: 0 is no effect; 10 is complete control
From the text: as §1, §2

[3] = tested on: sugar beet (Beta vulgaris); test: Test B pre-/postemergence; parameters: key: 0 is no effect; 10 is complete control
From the text: as §1, §2

[4] = tested on: purple nutsedge (Cyperus rotundus); test: Test B pre-/postemergence; parameters: key: 0 is no effect; 10 is complete control
From the text: as §1, §2

[5] = tested on: bedstraw (Galium aparine); test: Test B pre-/postemergence; parameters: key: 0 is no effect; 10 is complete control; conditions: for Bedstraw plant response rating: Preemergence
From the text: as §1, §2

[6] = tested on: cocklebur (Xanthium strumarium); test: Test B pre-/postemergence; parameters: key: 0 is no effect; 10 is complete control; conditions: for Cocklebur plant response rating: Preemergence
From the text: as §1, §2

[7] = tested on: broadleaf signalgrass (Brachiaria decumbens); test: Test B pre-/postemergence; parameters: key: 0 is no effect; 10 is complete control; conditions: for B. signalgrass plant response rating: Preemergence
From the text: as §1, §2

[8] = tested on: pigweed (Amaranthus retroflexus); test: Test B pre-/postemergence; parameters: key: 0 is no effect; 10 is complete control
From the text: as §1, §2

[9] = tested on: corn (Zea mays); test: Test B pre-/postemergence; parameters: key: 0 is no effect; 10 is complete control; conditions: for Corn plant response rating: Preemergence
From the text: as §1, §2

[10] = tested on: rape (Brassica napus); test: Test B pre-/postemergence; parameters: key: 0 is no effect; 10 is complete control
From the text: as §1, §2

[11] = tested on: wild oat (Avena fatua); test: Test B pre-/postemergence; parameters: key: 0 is no effect; 10 is complete control
From the text: as §1, §2

[12] = tested on: wheat (Triticum aestivum); test: Test B pre-/postemergence; parameters: key: 0 is no effect; 10 is complete control
From the text: as §1, §2

[13] = tested on: giant foxtail (Setaria faberii); test: Test B pre-/postemergence; parameters: key: 0 is no effect; 10 is complete control
From the text: as §1, §2

[14] = tested on: velvetleaf (Abutilon theophrasti); test: Test B pre-/postemergence; parameters: key: 0 is no effect; 10 is complete control
From the text: as §1, §2

[15] = tested on: crabgrass (Digitaria sanguinalis); test: Test B pre-/postemergence; parameters: key: 0 is no effect; 10 is complete control; conditions: for Crabgrass plant response rating: Preemergence
From the text: as §1, §2

[16] = tested on: momingglory (Ipomoea hederacea); test: Test B pre-/postemergence; parameters: key: 0 is no effect; 10 is complete control
From the text: as §1, §2

[17] = tested on: smallflower flatsedge (Cyperus difformis); test: Test B flood test
How it was run: (§3)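 Plants were grown to the 2-leaf stage before treatment with test chemical, then held in a greenhouse for twelve to sixteen days. Injury was visually rated against untreated controls on a 0–10 scale, where 0 is no effect and 10 is complete control.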

[18] = tested on: rice (Oryza sativa); test: Test B flood test
How it was run: as §3

[19] = tested on: duck salad (Heteranthera limosa); test: Test B flood test
How it was run: as §3

[20] = tested on: bamyardgrass (Echinochloa crus-galli); test: Test B flood test
How it was run: as §3

[21] = Rate 250 g/ha, Postemergence (so in the source)
[22] = Rate 62 g/ha, Postemergence (flood test)
[23] = Rate 125 g/ha, Postemergence section (flood test species)
[24] = Rate 250 g/ha, Postemergence (flood test species)
[25] = Rate 125 g/ha, Postemergence, flood test

## Cc1cnc(-c2ccc(Cl)cc2F)nc1Cc1cccc(C(F)(F)F)c1 [Compound 29]
[1]; Rate 62 g/ha, Postemergence
  Plant response rating, Blackgrass: 2
[1]; Rate 62 g/ha
  Blackgrass plant response rating: 1
[1]; Rate 125 g/ha, Postemergence
  Plant response rating, Blackgrass: 3
[1]; Rate 125 g/ha
  Blackgrass plant response rating: 1
[1]; Rate 250 g/ha, Postemergence
  Plant response rating, Blackgrass: 5
[1]; [21]
  Plant response rating, Blackgrass: 3
[2]; Rate 62 g/ha, Postemergence
  Plant response rating, Soybean: 3
[2]; Rate 62 g/ha, Preemergence
  Soybean plant response rating: 0
[2]; Rate 125 g/ha, Postemergence
  Soybean plant response rating: 4
[2]; Rate 125 g/ha, Preemergence
  Plant response rating, Soybean: 0
[2]; Rate 250 g/ha, Postemergence
  Plant response rating, Soybean: 7
[2]; [21]
  Plant response rating, Soybean: 0
[3]; Rate 62 g/ha, Postemergence
  Plant response rating, Sugarbeets: 9
[3]; Rate 62 g/ha, Preemergence
  Sugarbeets plant response rating: 0
[3]; Rate 125 g/ha, Postemergence
  Sugarbeets plant response rating: 9
[3]; Rate 125 g/ha, Preemergence
  Plant response rating, Sugarbeets: 3
[3]; Rate 250 g/ha, Postemergence
  Plant response rating, Sugarbeets: 10
[3]; [21]
  Plant response rating, Sugarbeets: 4
[4]; Rate 62 g/ha, Postemergence
  Plant response rating, Nutsedge: 0
[4]; Rate 62 g/ha, Preemergence
  Nutsedge plant response rating: 0
[4]; Rate 125 g/ha, Postemergence
  Nutsedge plant response rating: 0
[4]; Rate 125 g/ha, Preemergence
  Nutsedge plant response rating: 0
[5]; Rate 62 g/ha, Postemergence
  Plant response rating, Bedstraw: 2
[5]; Rate 62 g/ha
  Bedstraw plant response rating: 0
[5]; Rate 125 g/ha, Postemergence
  Plant response rating, Bedstraw: 9
[5]; Rate 125 g/ha
  Bedstraw plant response rating: 1
[5]; Rate 250 g/ha, Postemergence
  Plant response rating, Bedstraw: 9
[5]; [21]
  Plant response rating, Bedstraw: 3
[6]; Rate 62 g/ha, Postemergence
  Plant response rating, Cocklebur: 6
[6]; Rate 62 g/ha
  Cocklebur plant response rating: 0
[6]; Rate 125 g/ha, Postemergence
  Plant response rating, Cocklebur: 6
[6]; Rate 125 g/ha
  Cocklebur plant response rating: 0
[6]; Rate 250 g/ha, Postemergence
  Plant response rating, Cocklebur: 8
[6]; [21]
  Plant response rating, Cocklebur: 0
[7]; Rate 62 g/ha, Postemergence
  Plant response rating, B. signalgrass: 3
[7]; Rate 62 g/ha
  B. signalgrass plant response rating: 1
[7]; Rate 125 g/ha, Postemergence
  Plant response rating, B. signalgrass: 3
[7]; Rate 125 g/ha
  B. signalgrass plant response rating: 3
[7]; Rate 250 g/ha, Postemergence
  Plant response rating, B. signalgrass: 5
[7]; Rate 250 g/ha, Postemergence as printed in head r139 (second section for compounds 26-50)
  Plant response rating, B. signalgrass: 4
[8]; Rate 62 g/ha, Postemergence
  Plant response rating, Redroot pigweed: 8
[8]; Rate 62 g/ha, Preemergence
  Redroot pigweed plant response rating: 0
[8]; Rate 125 g/ha, Postemergence
  Redroot pigweed plant response rating: 10
[8]; Rate 125 g/ha, Preemergence
  Redroot pigweed plant response rating: 3
[8]; Rate 250 g/ha, Postemergence
  Plant response rating, Redroot pigweed: 10
[8]; [21]
  Plant response rating, Redroot pigweed: 3
[9]; Rate 62 g/ha, Postemergence
  Plant response rating, Corn: 2
[9]; Rate 62 g/ha
  Corn plant response rating: 0
[9]; Rate 125 g/ha, Postemergence
  Plant response rating, Corn: 2
[9]; Rate 125 g/ha
  Corn plant response rating: 0
[9]; Rate 250 g/ha, Postemergence
  Plant response rating, Corn: 3
[9]; [21]
  Plant response rating, Corn: 0
[10]; Rate 62 g/ha, Postemergence
  Plant response rating, Rape: 8
[10]; Rate 62 g/ha, Preemergence
  Rape plant response rating: 1
[10]; Rate 125 g/ha, Postemergence
  Rape plant response rating: 9
[10]; Rate 125 g/ha, Preemergence
  Rape plant response rating: 1
[10]; Rate 250 g/ha, Postemergence
  Plant response rating, Rape: 9
[10]; [21]
  Plant response rating, Rape: 1
[11]; Rate 62 g/ha, Postemergence
  Wild oats plant response rating: 1
[11]; Rate 62 g/ha, Preemergence
  Wild oats plant response rating: 0
[11]; Rate 125 g/ha, Postemergence
  Wild oats plant response rating: 2
[11]; Rate 125 g/ha, Preemergence
  Plant response rating, Wild oats: 0
[11]; Rate 250 g/ha, Postemergence
  Plant response rating, Wild oats: 4
[11]; [21]
  Plant response rating, Wild oats: 1
[12]; Rate 62 g/ha, Postemergence
  Wheat plant response rating: 2
[12]; Rate 62 g/ha, Preemergence
  Wheat plant response rating: 0
[12]; Rate 125 g/ha, Postemergence
  Wheat plant response rating: 3
[12]; Rate 125 g/ha, Preemergence
  Plant response rating, Wheat: 0
[12]; Rate 250 g/ha, Postemergence
  Plant response rating, Wheat: 4
[12]; [21]
  Plant response rating, Wheat: 0
[13]; Rate 62 g/ha, Postemergence
  Plant response rating, Giant foxtail: 3
[13]; Rate 62 g/ha, Preemergence
  Giant foxtail plant response rating: 1
[13]; Rate 125 g/ha, Postemergence
  Giant foxtail plant response rating: 4
[13]; Rate 125 g/ha, Preemergence
  Giant foxtail plant response rating: 4
[13]; Rate 250 g/ha, Postemergence
  Plant response rating, Giant foxtail: 4
[13]; [21]
  Plant response rating, Giant foxtail: 9
[14]; Rate 62 g/ha, Postemergence
  Plant response rating, Velvetleaf: 3
[14]; Rate 62 g/ha, Preemergence
  Velvetleaf plant response rating: 0
[14]; Rate 125 g/ha, Postemergence
  Velvetleaf plant response rating: 3
[14]; Rate 125 g/ha, Preemergence
  Plant response rating, Velvetleaf: 0
[14]; Rate 250 g/ha, Postemergence
  Plant response rating, Velvetleaf: 4
[14]; [21]
  Plant response rating, Velvetleaf: 0
[15]; Rate 62 g/ha, Postemergence
  Plant response rating, Crabgrass: 4
[15]; Rate 62 g/ha
  Crabgrass plant response rating: 2
[15]; Rate 125 g/ha, Postemergence
  Plant response rating, Crabgrass: 6
[15]; Rate 125 g/ha
  Crabgrass plant response rating: 4
[15]; Rate 250 g/ha, Postemergence
  Plant response rating, Crabgrass: 9
[15]; [21]
  Plant response rating, Crabgrass: 7
[16]; Rate 62 g/ha, Postemergence
  Plant response rating, Morningglory: 8
[16]; Rate 62 g/ha, Preemergence
  Morningglory plant response rating: 0
[16]; Rate 125 g/ha, Postemergence
  Morningglory plant response rating: 10
[16]; Rate 125 g/ha, Preemergence
  Morningglory plant response rating: 2
[16]; Rate 250 g/ha, Postemergence
  Plant response rating, Morningglory: 10
[16]; [21]
  Plant response rating, Morningglory: 3
[17]; [22]
  Plant response rating, S. Flatsedge: 1
[17]; [23]
  S. Flatsedge plant response rating: 6
[17]; [24]
  Plant response rating, S. Flatsedge: 8
[18]; [22]
  Plant response rating, Rice: 1
[18]; [23]
  Rice plant response rating: 2
[18]; [24]
  Plant response rating, Rice: 3
[19]; [22]
  Plant response rating, Ducksalad: 1
[19]; [25]
  Plant response rating, Ducksalad: 3
[19]; [24]
  Plant response rating, Ducksalad: 4
[20]; [22]
  Plant response rating, Barnyardgrass: 2
[20]; [25]
  Plant response rating, Barnyardgrass: 3
[20]; [24]
  Plant response rating, Barnyardgrass: 4
